Source: the NIST ThermoML archive (doi:10.1021/acs.jced.7b00581)
± gives the expanded uncertainty stated by the source.

Conditions: 100 kPa, Liquid; for speed of sound: Single path-length method; for mass density: Vibrating tube method

CCCO [propan-1-ol]
speed of sound (288.15 K): 1242.3 ± 0.42 m/s
mass density (288.15 K): 807.834 ± 0.15 kg/m3
speed of sound (298.15 K): 1205.3 ± 0.41 m/s
mass density (298.15 K): 799.597 ± 0.15 kg/m3
speed of sound (308.15 K): 1170.4 ± 0.39 m/s
mass density (308.15 K): 791.399 ± 0.16 kg/m3
speed of sound (318.15 K): 1137.3 ± 0.39 m/s
mass density (318.15 K): 783.121 ± 0.16 kg/m3
